Data on 1 compound can be found in patent publication US20250221930A1, “A COMPOSITION COMPRISING LIPID NANOPARTICLES AND AN ANTIFUNGAL POLYENE” (INSTITUT NATIONAL DE LA SANTÉ ET DE LA RECHERCHE MÉDICALE, priority 2022, published 2025).

Converted amounts (≈) assume the structure as drawn.

What all share (assay type): cell-based
In one experiment the test system is Rhizopus arrhizus 1. Description: Checkerboard MICs of AmB, ISA and PEG15HS in solution. Particulars: RPMI, 24 h at 37° C. How it is done: AmB minimum inhibitory concentrations (MIC) of each strain of Mucorales was measured in RPMI in the presence of different concentrations of ISA or PEG15HS as described by the EUCAST broth microdilution antifungal susceptibility test methodology with modification for the checkerboard procedure. Checkerboards were performed by adding 100 μL of two-fold dilutions of AmB (0.008 to 4 mg/L) and ISA (0.008 to 4 mg/L) or PEG15HS (0.04 to 2752 mg/L) in 96 well plates. One hundred microliters of a spore suspension at a concentration of 105 spores/mL were added to the wells, and the plates were incubated for 24 h at 37° C. […] Three experiments were performed for each strain.
AmB MIC of each strain of Mucorales was measured in RPMI in the presence of different concentrations of ISA and a constant concentration of PEG15HS (100 times the concentration of AmB) as described by the EUCAST broth microdilution antifungal susceptibility test methodology with modification for the checkerboard procedure. Checkerboards were performed by adding 100 μL of two-fold dilutions of AmB (0.008 to 4 mg/L)+PEG15HS (0.8 to 400 mg/L) and ISA (0.008 to 4 mg/L) in 96 well plates. One hundred microliters of a spore suspension at a concentration of 105 spores/mL were added to the wells, and the plates were incubated for 24 h at 37° C. […] Three experiments were performed for each strain. […]

For another experiment, the system named is Lichtheimia ramosa. Description: MIC of AmB in solution with blank lipid nanoparticles (BLNPs), EUCAST broth microdilution. Conditions: AmB in solution in RPMI, without PEG15HS LNPs. How it is done: MICs for each fungi were measured in the presence of different concentrations of AmB (solubilized in the LNP suspensions or loaded in the LNP) as described by the EUCAST broth microdilution antifungal susceptibility test methodology (EUCAST DEFINITIVE DOCUMENT E.Def 9.3.2 Apr. 2020. EUCAST antifungal MIC method for mould).
A clinical isolate of Lichtheimia ramosa was used. Isolate were subcultured from frozen stocks (−80° C.) on 75 cm^3 flasks containing 15 ml of Sabouraud dextrose agar (Sigma-Aldrich, St. Quentin Fallavier, France) during 3 days at 37° C. Spores were collected by flooding the flask with 10 mL of sterile water. The suspensions were filtered on nylon filter (Millipore, Carrigtwohill, Ireland) with pore size of 11 μm to remove hyphal elements. The concentration of the spore suspensions was then adjusted in sterile water to obtain inocula of 2×10^5 spores/mL.
The MIC of the formulations for Lichtheimia ramosa was assayed.
(In broth dilution the organism is exposed to a series of concentrations in liquid medium.)

The subject of another experiment is Cryptococcus neoformans. Description: EUCAST MICs of AmB alone and AmB formulated in LNPs. The protocol:
This medium was sterilized using a 0.22 μm pore-size filter.
AmB powder (Sigma-Aldrich) was dissolved in dimethyl sulfoxide to obtain a stock solution at 1000 mg/L, stored at −80° C. for six months.
On the day of use, AmB and freshly made AmB-loaded LNPs were diluted in RPMI medium to obtain the desired concentrations. The AmB-loaded LNPs were prepared as detailed in Example 5.
MICs of AmB alone and AmB formulated in LNPs were evaluated according to the European Committee on Antimicrobial Susceptibility Testing (EUCAST) guidelines. Briefly, MICs were determined by adding 100 μL of two-fold dilutions of AmB (0.008 to 4 mg/L) and LNPs-AmB (0.04 to 1024 mg/L) in 96-well plates. One hundred microliters of a fungal suspension at a final concentration of 10^5 CFU/mL was added to the wells, and the plates were incubated for 48 h at 30° C. MICs, defined as the lowest concentration of AmB inhibiting 90% of the growth of the fungal strain, were read after […] of incubation by measuring absorbance at 530 nm with an Infinite M200 Pro microplate reader (Tecan®, France). Three experiments were performed for each strain.

With `C[C@@H]1[C@H](O)[C@@H](C)/C=C/C=C/C=C/C=C/C=C/C=C/C=C/[C@H](O[C@@H]2O[C@H](C)[C@@H](O)[C@H](N)[C@@H]2O)C[C@@H]2O[C@](O)(C[C@@H](O)C[C@@H](O)[C@H](O)CC[C@@H](O)C[C@@H](O)CC(=O)O[C@H]1C)C[C@H](O)[C@H]2C(=O)O` [AmB, amphotericin B], the “MIC of AmB” value in the experiment with Rhizopus arrhizus 1 was found to be 1 µg/mL; with Lichtheimia ramosa, 0.5 µg/mL. The “effect on growth of the cryptococci at concentrations below the MIC” value in the experiment on Cryptococcus neoformans is “had no effect on the growth profile”. Besides, the MIC (in general, the lowest concentration found to suppress growth) is 0.25 to 1 µg/mL in the experiment on Cryptococcus neoformans (all the isolates (eight clinical strains)); 0.5 µg/mL (≈ 0.541 µM) against Cryptococcus neoformans (strain C1, 90% growth inhibition, absorbance at 530 nm); 0.25 µg/mL (≈ 0.271 µM) with Cryptococcus neoformans (strain C2, 90% growth inhibition, absorbance at 530 nm); 0.5 µg/mL (≈ 0.541 µM) against Cryptococcus neoformans (strain C3, 90% growth inhibition, absorbance at 530 nm); 0.5 µg/mL (≈ 0.541 µM) against Cryptococcus neoformans (strain C4, 90% growth inhibition, absorbance at 530 nm); 1 µg/mL (≈ 1.08 µM) in the experiment with Cryptococcus neoformans (strain C5, 90% growth inhibition, absorbance at 530 nm). Also, the MIC against Cryptococcus neoformans (strain C6, 90% growth inhibition, absorbance at 530 nm) came to 1 µg/mL (≈ 1.08 µM); in the experiment with Cryptococcus neoformans (strain C7, 90% growth inhibition, absorbance at 530 nm) it was 1 µg/mL (≈ 1.08 µM); against Cryptococcus neoformans (strain C8, 90% growth inhibition, absorbance at 530 nm), 1 µg/mL (≈ 1.08 µM).
